Columns and labels:
[1] = tested on: axotomized murine DRG axons; test: Axonal degeneration (degeneration index) of transected axons; type: cell-based
Experimental: (§1) The role of the DLK/LZK MAPK pathway in regulating NAD and SARM1 pathways of axonal degeneration was established. Its role in regulating levels of the NAD-synthesizing enzyme NMNAT2 after injury was explored by treating murine DRG axons with the DLK/LZK inhibitor GNE-3511 after axotomy.
To assess the therapeutic potential of post-axotomy MAPK inhibition, axons were treated with GNE-3511 at different time points before or after axotomy (2 h pre-treatment, immediately after axotomy, 0 h, or 2 and 4 hours post-injury).
Due to the different mechanism of action of MAPK and NAMPT inhibition, therapeutic synergy was further tested by treating axotomized axons with the MAPK inhibitor GNE at the time of injury and the NAMPT inhibitor FK866 at different time points (2, 4, 6 or 8 hours post injury).
Transected axons were treated with the NAMPT inhibitor FK866 after injury and NaR was added concurrently or at 3, 6, 9, or 24 hours post axotomy. Statistical analysis of degeneration index was performed by two-way ANOVA for the effect of time (F(4,32)=62.77, p<0.0001), treatment (F(5,8)=17.05, p=0.0004), and their interactions (F(20,32)=16.82, p<0.0001) with Holm-Šidák's multiple comparisons. […] See FIG. 15 (error bars indicate +/−1 SEM).
Transected axons were treated at the time of injury with the DLK inhibitor GNE-3511 or vehicle (DMSO) and with the combination of FK866/NaR either at the time of injury or with an 8-hour delay. […] Statistical analysis of degeneration index was performed by two-way ANOVA for the effect of time (F(2.143, 17.15)=49.43, p<0.0001), treatment (F(3,8)=9.58, p=0.005), and their interactions (F(18,48)=13.99, p<0.0001) with Holm-Šidák's multiple comparisons. […] See FIG. 16B (error bars indicate +/−1 SEM).

[2] = tested on: NAD+ pathway metabolites (NMN, NAD+, cADPR, Nam) in transected axons; test: Metabolite analysis of distal axons 8 hours post axotomy; type: cell-based
Experimental: Axons were transected and treated with vehicle (DMSO), the NAMPT inhibitor FK866, or FK866+NaR. Axons were collected at 8 hours post axotomy for metabolite analysis. […] Statistically significant changes between treated and untreated transected axons were analyzed with one-way ANOVA and Holm-Šidák's multiple comparisons; *=p<0.05, **=p<0.01, ***=p<0.001, #=p<0.0001. Error bars indicate +/−1 SEM.
Relative changes in protein-normalized levels of metabolites in distal axons were measured at 8 hours following transection and treatment at the time of injury with the MAPK inhibitor GNE-3511, the NAMPT inhibitor FK866 in combination with NaR, or with the three compounds together.

[3] = tested on: JNK, SCG10, NMNAT2 and α-Spectrin in murine DRG axons; test: Western blot of distal axons after axotomy; type: cell-based
Experimental: as §1
Western blot analysis of distal axons was performed at 4 and 8 hours after transection and treatment with the DLK inhibitor GNE3511 or vehicle (DMSO).

[4] = tested on: retinal ganglion cells (RGCs); test: Impact acceleration (IA) TBI model: RGC survival, SNCG staining of retinal whole-mounts; type: in vivo, mice; conditions: intraperitoneal 60 mg/kg, treatment 21 days after IA; vehicle 1500 cells/mm2; p<0.05
Description: Experimental subjects and IA procedures Eight-week-old male C57BL/6 J wild-type mice and transgenic Dlk^fl/fl and Dlk^fl/flLzk^fl/fl mice were subjected to IA or sham injury. Male mice were chosen such as to avoid the confounding effects of sex hormones on injury outcomes. Wild-type mice and founders were purchased from Charles River Laboratories (Wilmington, MA). Animals were housed in a vivarium with a 12-h light/12-h dark cycle and given ad libitum access to food and water. All animal handling as well as surgical and postoperative procedures were carried out according to protocols approved by the Animal Care and Use Committee of the Johns Hopkins Medical Institutions.
Impact acceleration injury was performed with height weight settings generating kinetic energy of 0.45-0.5 Jupon impact, essentially as described (FIG. 21). Immediately prior to injury, the cranium was exposed and a 5 mm-thick stainless-steel disc was glued onto the skull midway between bregma and lambda sutures. Surgical procedures and injury were performed under aseptic conditions with gas anesthesia (isoflurane:oxygen:nitrous oxide=1:33:66). Immediately after injury the disc was removed the skull was checked under the surgical microscope for skull fractures. The rare animals with skull fractures were excluded from further study because such events introduce injuries variables that cannot be easily controlled. […]

[5] = in vivo; cited from earlier work
[6] = treatment immediately after axotomy
[7] = GNE vs FK+NaR and vs FK+NaR+GNE

## O=C(/C=C/c1cccnc1)NCCCCC1CCN(C(=O)c2ccccc2)CC1 [FK866]
[1]; in the absence of GNE-3511, added 2, 4, 6 or 8 hours post injury
  protection from axonal degeneration: provided protection especially when added at 2 hours
[1]; with GNE-3511 at the time of injury, FK-866 added 2, 4, 6 or 8 hours post injury
  protection from axonal degeneration: enhanced at 2, 4 and 6 hours post injury
[2]
  NAD+ degrading activity (cADPR/NAD+) relative to vehicle: suppressed the NAD+ degrading activity
  NAD+/NMN ratio compared to vehicle: increases
  NMN/Nam ratio compared to vehicle: reductions
  cADPR levels relative to vehicle: only the combined treatment suppressed cADPR levels
[2]; treatment at time of injury
  NAD+ levels compared to vehicle treated transected axons: protects NAD+ levels
  NMN levels compared to vehicle treated transected axons: suppressed NMN

## N#Cc1ccnc(Nc2cc(C3CCN(C4COC4)CC3)cc(N3CCC(F)(F)C3)n2)c1 [GNE-3511]
[3]; 4 and 8 hours after transection
  injury associated degradation of SCG10: suppressed the injury associated degradation of SCG10
[3]; 4 hours after transection, vs vehicle (DMSO), n=3
  phosphorylation of JNK: suppressed phosphorylation of JNK
[3]; 8 hours after transection
  injury associated degradation of spectrin (p150 fragment to total spectrin): suppressed
[3]; significantly degraded in vehicle treated axons
  degradation of NMNAT2 between 4 and 8 hours post-axotomy: not in the presence of GNE
[3]; [6]
  calpain-mediated degradation of α-Spectrin: ameliorated the calpain-mediated degradation
  degradation of NMNAT2: reduced the degradation
  phosphorylation of SCG10: reduced phosphorylation
  phosphorylation of the downstream JNKs: reduced phosphorylation
[1]; applied before (2 h pre-treatment) or immediately following injury (0 h)
  protection from axonal degeneration: Significant protection
[1]; more delayed regimes (2 and 4 hours post-injury)
  protection from axonal degeneration: lesser protection
[2]
  cADPR/NAD+ ratio, difference vs FK+NaR: significant differences
[2]; [7]
  NAD+/NMN ratio, difference between treatment groups: significant differences
  Nam/NAD+ ratio, difference between treatment groups: significant differences
[2]; treatment at time of injury
  NAD+ levels compared to FK+NaR or the triple combination: greater protection of NAD+ levels

## NC(=O)c1ccc[n+]([C@@H]2O[C@H](CO)[C@@H](O)[C@H]2O)c1 [NaR, nicotinamide riboside]
[1]; NaR added 3, 6 or 9 hours post-axotomy in the presence of FK866, up to 4 days post-injury, p<0.0001
  axon protection (degeneration index) compared to FK866 alone: significantly protected axons
[1]; NaR added at 24 hours in the presence of FK866
  axon protection (degeneration index) compared to FK866 alone: no additive effect
[1]; in the presence of FK866 given after injury
  delay of NaR supplementation after axotomy with minimal and/or no loss of efficacy in suppressing axon fragmentation: up to 9 hours

## CCN(CC)CCNC(=O)c1c(C)[nH]c(/C=C2\C(=O)Nc3ccc(F)cc32)c1C [sunitinib]
[4]
  number of surviving RGCs: ~2300 cells/mm2
[5]
  CNS penetration: penetrates the CNS

Source: patent US12364681B2, “Combined MAPK and NAMPT inhibition for treatment of neuron degeneration” (The Johns Hopkins University, priority 2021, dated 2025)
